In patent publication US12583858B2 (Genentech, Inc., priority 2015, dated 2026):
pEC50: −log10 of the molar value.

biological target: T1, TDO2 (Homo sapiens, UniProt P48775); experiment: TDO2 cell assay (NFK GreenScreen, SW48 cells); format: cell-based; conditions: SW48 cells (high TDO expressing), 200 uM tryptophan, 24 hours; Table 3; read-out: TDO2 Cell Fluor EC50
T1 construct: decreased levels of NFK in SW48 cells (high TDO expressing cells)
T1 sequence (P48775 whole entry): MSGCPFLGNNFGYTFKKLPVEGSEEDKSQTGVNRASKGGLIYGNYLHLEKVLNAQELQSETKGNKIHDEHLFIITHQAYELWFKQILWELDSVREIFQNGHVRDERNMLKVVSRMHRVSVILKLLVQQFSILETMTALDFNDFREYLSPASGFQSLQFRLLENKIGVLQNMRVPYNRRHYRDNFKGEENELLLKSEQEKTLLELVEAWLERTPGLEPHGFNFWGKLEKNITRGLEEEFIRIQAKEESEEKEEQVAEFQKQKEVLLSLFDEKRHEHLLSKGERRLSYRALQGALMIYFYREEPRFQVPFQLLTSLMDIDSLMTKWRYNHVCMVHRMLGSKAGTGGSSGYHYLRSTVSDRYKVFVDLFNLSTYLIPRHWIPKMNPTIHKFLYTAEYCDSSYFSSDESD

Question: `OC1c2[nH]ncc2CCC1C1c2ccccc2-c2cncn21` (single isomer, unassigned) [Example 157c] was tested. Which pEC50 did it give?
Answer: The pEC50 was 4.85.

Question: With `OC1c2[nH]ncc2CCC1C1c2ccccc2-c2cncn21` (single isomer, unassigned) [Example 157e] as the molecule, how does the pEC50 read?
Answer: Its pEC50 is 7.02.

Question: `OC1c2[nH]ncc2CCC1C1c2ccccc2-c2cncn21` (single isomer, unassigned) [Example 157f] was tested. Which pEC50 did it give?
Answer: Its pEC50 is less than 4.60.

Question: `OC1c2[nH]ncc2CCC1C1c2ccccc2-c2cncn21` (single isomer, unassigned) [Example 157h] was tested. Which pEC50 did it give?
Answer: The pEC50 was 6.12.

Question: How did the pEC50 turn out when `Cc1cnn2c1C(O)C(C1c3ccccc3-c3cncn31)CC2` (single isomer, unassigned) [Example 159a] was run?
Answer: The pEC50 was 6.57.

Question: How did the pEC50 turn out when `Cc1cnn2c1C(O)C(C1c3ccccc3-c3cncn31)CC2` (single isomer, unassigned) [Example 159b] was run?
Answer: The pEC50 was 4.85.

Question: With `Cc1cnn2c1C(O)C(C1c3ccccc3-c3cncn31)CC2` (single isomer, unassigned) [Example 159c] as the molecule, how does the pEC50 read?
Answer: Its pEC50 is 6.60.

Question: How did the pEC50 turn out when `Cc1cnn2c1C(O)C(C1c3ccccc3-c3cncn31)CC2` (single isomer, unassigned) [Example 159d] was run?
Answer: The pEC50 was 5.43.

Question: How did the pEC50 turn out when `O[C@@H]1c2c(Cl)cnn2CC[C@@H]1[C@H]1c2ccccc2-c2cncn21` (single isomer, unassigned) [Example 160c] was run?
Answer: The pEC50 was 4.64.

Question: With `O[C@@H]1c2c(Cl)cnn2CC[C@@H]1[C@H]1c2ccccc2-c2cncn21` (single isomer, unassigned) [Example 160d] as the molecule, how does the pEC50 read?
Answer: Its pEC50 is 5.22.

Question: `Nc1cc2n(n1)CCC(C1c3ccccc3-c3cncn31)C2O` (single isomer, unassigned) [Example 161c] was tested. Which pEC50 did it give?
Answer: The pEC50 was 6.00.

Question: `Nc1cc2n(n1)CCC(C1c3ccccc3-c3cncn31)C2O` (single isomer, unassigned) [Example 161e] was tested. Which pEC50 did it give?
Answer: The pEC50 was less than 4.60.

Question: How did the pEC50 turn out when `Nc1cc2n(n1)CCC(C1c3ccccc3-c3cncn31)C2O` (single isomer, unassigned) [Example 161g] was run?
Answer: Its pEC50 is less than 4.60.

Question: How did the pEC50 turn out when `Nc1cc2n(n1)CCC(C1c3ccccc3-c3cncn31)C2O` (single isomer, unassigned) [Example 161h] was run?
Answer: Its pEC50 is 4.74.

Question: How did the pEC50 turn out when `OC1c2nonc2CCC1C1c2ccccc2-c2cncn21` (single isomer, unassigned) [Example 163a] was run?
Answer: Its pEC50 is 7.00.

Question: With `OC1c2nonc2CCC1C1c2ccccc2-c2cncn21` (single isomer, unassigned) [Example 163b] as the molecule, how does the pEC50 read?
Answer: The pEC50 was 7.22.

Question: `OC1c2nonc2CCC1C1c2ccccc2-c2cncn21` (single isomer, unassigned) [Example 163c] was tested. Which pEC50 did it give?
Answer: The pEC50 was 4.82.

Question: `OC1c2nonc2CCC1C1c2ccccc2-c2cncn21` (single isomer, unassigned) [Example 163d] was tested. Which pEC50 did it give?
Answer: Its pEC50 is 7.27.

Question: How did the pEC50 turn out when `OC1c2nonc2CCC1C1c2ccccc2-c2cncn21` (single isomer, unassigned) [Example 163e] was run?
Answer: The pEC50 was 5.21.

Question: With `OC1c2nonc2CCC1C1c2ccccc2-c2cncn21` (single isomer, unassigned) [Example 163f] as the molecule, how does the pEC50 read?
Answer: Its pEC50 is less than 4.60.

Question: `OC1c2nonc2CCC1C1c2ccccc2-c2cncn21` (single isomer, unassigned) [Example 163g] was tested. Which pEC50 did it give?
Answer: The pEC50 was 6.36.

Question: `OC1c2nonc2CCC1C1c2ccccc2-c2cncn21` (single isomer, unassigned) [Example 163h] was tested. Which pEC50 did it give?
Answer: Its pEC50 is 6.03.

Question: How did the pEC50 turn out when `CC1(C)CCCCC1(O)C1c2ccccc2-c2cncn21` (single isomer, unassigned) [Example 164a] was run?
Answer: The pEC50 was 7.40.

Question: `CC1(C)CCCCC1(O)C1c2ccccc2-c2cncn21` (single isomer, unassigned) [Example 164b] was tested. Which pEC50 did it give?
Answer: Its pEC50 is 5.12.

Question: `NC(=O)C1(C(O)C2c3ccccc3-c3cncn32)CC1` (single isomer, unassigned) [Example 165c] was tested. Which pEC50 did it give?
Answer: Its pEC50 is 4.96.

Question: How did the pEC50 turn out when `Cc1cc2n(n1)CCC(C1c3ccccc3-c3cncn31)C2O` (single isomer, unassigned) [Example 166a] was run?
Answer: Its pEC50 is less than 4.60.

Question: How did the pEC50 turn out when `Cc1cc2n(n1)CCC(C1c3ccccc3-c3cncn31)C2O` (single isomer, unassigned) [Example 166b] was run?
Answer: The pEC50 was 6.57.

Question: With `Cc1nc2c(o1)CCC(C1c3ccccc3-c3cncn31)C2O` (single isomer, unassigned) [Example 168a] as the molecule, how does the pEC50 read?
Answer: The pEC50 was 6.85.

Question: With `OC1c2cccnc2CCC1C1c2ccc(F)cc2-c2cncn21` (single isomer, unassigned) [Example 169a] as the molecule, how does the pEC50 read?
Answer: Its pEC50 is 6.68.

Question: How did the pEC50 turn out when `O[C@H]1c2cccnc2CC[C@@H]1[C@@H]1c2ccc(F)cc2-c2cncn21` (single isomer, unassigned) [Example 169b] was run?
Answer: Its pEC50 is 4.80.

Question: With `OC1CCOCC1C1c2cccc(F)c2-c2cncn21` (single isomer, unassigned) [Example 170a] as the molecule, how does the pEC50 read?
Answer: The pEC50 was less than 4.60.

Question: How did the pEC50 turn out when `OC1CCOCC1C1c2cccc(F)c2-c2cncn21` (single isomer, unassigned) [Example 170b] was run?
Answer: Its pEC50 is 5.68.

Question: How did the pEC50 turn out when `OC1CCOCC1C1c2cccc(F)c2-c2cncn21` (single isomer, unassigned) [Example 170c] was run?
Answer: The pEC50 was less than 4.60.

Question: How did the pEC50 turn out when `OC1CCOCC1C1c2cccc(F)c2-c2cncn21` (single isomer, unassigned) [Example 170d] was run?
Answer: Its pEC50 is 4.89.

Question: `Cc1ccc2c(c1)-c1cncn1C2C1COCC1O` (single isomer, unassigned) [Example 171a] was tested. Which pEC50 did it give?
Answer: The pEC50 was 6.00.

Question: With `Cc1ccc2c(c1)-c1cncn1C2C1COCC1O` (single isomer, unassigned) [Example 171b] as the molecule, how does the pEC50 read?
Answer: The pEC50 was less than 4.60.

Question: `Cc1ccc2c(c1)-c1cncn1C2C1COCC1O` (single isomer, unassigned) [Example 171c] was tested. Which pEC50 did it give?
Answer: The pEC50 was 5.24.

Question: With `Cc1ccc2c(c1)-c1cncn1C2C1COCC1O` (single isomer, unassigned) [Example 171d] as the molecule, how does the pEC50 read?
Answer: Its pEC50 is 4.75.

Question: With `NC(=O)c1cc2n(n1)CCC(C1c3ccccc3-c3cncn31)C2O` (single isomer, unassigned) [Example 172a] as the molecule, how does the pEC50 read?
Answer: The pEC50 was less than 4.60.

Question: How did the pEC50 turn out when `NC(=O)c1cc2n(n1)CCC(C1c3ccccc3-c3cncn31)C2O` (single isomer, unassigned) [Example 172b] was run?
Answer: The pEC50 was 5.96.

Question: `OC1c2cc(C(F)F)nn2CCC1C1c2ccccc2-c2cncn21` (single isomer, unassigned) [Example 173a] was tested. Which pEC50 did it give?
Answer: Its pEC50 is less than 4.60.

Question: With `OC1c2cc(C(F)F)nn2CCC1C1c2ccccc2-c2cncn21` (single isomer, unassigned) [Example 173b] as the molecule, how does the pEC50 read?
Answer: The pEC50 was 6.37.

Question: How did the pEC50 turn out when `N#Cc1cc2n(n1)CCC(C1c3ccccc3-c3cncn31)C2O` (single isomer, unassigned) [Example 174a] was run?
Answer: Its pEC50 is less than 4.60.

Question: With `N#Cc1cc2n(n1)CCC(C1c3ccccc3-c3cncn31)C2O` (single isomer, unassigned) [Example 174b] as the molecule, how does the pEC50 read?
Answer: Its pEC50 is 6.82.

Question: `Cc1nc2c(o1)CCC(C1c3ccccc3-c3cncn31)C2O` (single isomer, unassigned) [Example 178a] was tested. Which pEC50 did it give?
Answer: Its pEC50 is 6.92.

Question: How did the pEC50 turn out when `Cc1nc2c(o1)CCC(C1c3ccccc3-c3cncn31)C2O` (single isomer, unassigned) [Example 178b] was run?
Answer: The pEC50 was less than 4.60.

Question: `CS(=O)(=O)N1CCC2(CC1)CC(C1c3ccccc3-c3cncn31)C2O` (single isomer, unassigned) [Example 179c] was tested. Which pEC50 did it give?
Answer: The pEC50 was less than 4.60.

Question: How did the pEC50 turn out when `CS(=O)(=O)N1CCC2(CC1)CC(C1c3ccccc3-c3cncn31)C2O` (single isomer, unassigned) [Example 179d] was run?
Answer: The pEC50 was 6.27.

Question: With `CS(=O)(=O)N1CCC2(CC1)CC(C1c3ccccc3-c3cncn31)C2O` (single isomer, unassigned) [Example 179e] as the molecule, how does the pEC50 read?
Answer: The pEC50 was 5.17.

Question: `CS(=O)(=O)N1CCC2(CC1)CC(C1c3ccccc3-c3cncn31)C2O` (single isomer, unassigned) [Example 179f] was tested. Which pEC50 did it give?
Answer: The pEC50 was 6.92.

Question: How did the pEC50 turn out when `CS(=O)(=O)N1CCC2(CC1)CC(C1c3ccccc3-c3cncn31)C2O` (single isomer, unassigned) [Example 179g] was run?
Answer: Its pEC50 is 6.10.

Question: How did the pEC50 turn out when `CS(=O)(=O)N1CCC2(CC1)CC(C1c3ccccc3-c3cncn31)C2O` (single isomer, unassigned) [Example 179h] was run?
Answer: Its pEC50 is 5.07.

Question: With `CS(=O)(=O)N1CCC2(CCC(C3c4ccccc4-c4cncn43)C2O)CC1` (single isomer, unassigned) [Example 180a] as the molecule, how does the pEC50 read?
Answer: Its pEC50 is 6.43.

Question: `CS(=O)(=O)N1CCC2(CCC(C3c4ccccc4-c4cncn43)C2O)CC1` (single isomer, unassigned) [Example 180b] was tested. Which pEC50 did it give?
Answer: The pEC50 was less than 4.60.

Question: How did the pEC50 turn out when `CS(=O)(=O)N1CCC2(CCC(C3c4ccccc4-c4cncn43)C2O)CC1` (single isomer, unassigned) [Example 180c] was run?
Answer: The pEC50 was 7.01.

Question: With `CS(=O)(=O)N1CCC2(CCC(C3c4ccccc4-c4cncn43)C2O)CC1` (single isomer, unassigned) [Example 180d] as the molecule, how does the pEC50 read?
Answer: Its pEC50 is less than 4.60.

Question: How did the pEC50 turn out when `NS(=O)(=O)N1CCC2(CC1)CC(C1c3ccccc3-c3cncn31)C2O` (single isomer, unassigned) [Example 181a] was run?
Answer: The pEC50 was 6.18.

Question: How did the pEC50 turn out when `NS(=O)(=O)N1CCC2(CC1)CC(C1c3ccccc3-c3cncn31)C2O` (single isomer, unassigned) [Example 181b] was run?
Answer: Its pEC50 is less than 4.60.

Question: With `NS(=O)(=O)N1CCC2(CC1)CC(C1c3ccccc3-c3cncn31)C2O` (single isomer, unassigned) [Example 181c] as the molecule, how does the pEC50 read?
Answer: Its pEC50 is less than 4.60.

Question: `NS(=O)(=O)N1CCC2(CC1)CC(C1c3ccccc3-c3cncn31)C2O` (single isomer, unassigned) [Example 181d] was tested. Which pEC50 did it give?
Answer: The pEC50 was 5.52.

Question: `NS(=O)(=O)N1CCC2(CC1)CC(C1c3ccccc3-c3cncn31)C2O` (single isomer, unassigned) [Example 181e] was tested. Which pEC50 did it give?
Answer: The pEC50 was 4.92.

Question: How did the pEC50 turn out when `NS(=O)(=O)N1CCC2(CC1)CC(C1c3ccccc3-c3cncn31)C2O` (single isomer, unassigned) [Example 181f] was run?
Answer: Its pEC50 is 6.70.

Question: `NS(=O)(=O)N1CCC2(CC1)CC(C1c3ccccc3-c3cncn31)C2O` (single isomer, unassigned) [Example 181g] was tested. Which pEC50 did it give?
Answer: The pEC50 was 6.03.

Question: How did the pEC50 turn out when `NS(=O)(=O)N1CCC2(CC1)CC(C1c3ccccc3-c3cncn31)C2O` (single isomer, unassigned) [Example 181h] was run?
Answer: The pEC50 was 4.96.

Question: `NS(=O)(=O)N1CCC2(CCC(C3c4ccccc4-c4cncn43)C2O)CC1` (single isomer, unassigned) [Example 182a] was tested. Which pEC50 did it give?
Answer: Its pEC50 is less than 4.60.

Question: With `NS(=O)(=O)N1CCC2(CCC(C3c4ccccc4-c4cncn43)C2O)CC1` (single isomer, unassigned) [Example 182b] as the molecule, how does the pEC50 read?
Answer: The pEC50 was 6.27.

Question: With `NS(=O)(=O)N1CCC2(CCC(C3c4ccccc4-c4cncn43)C2O)CC1` (single isomer, unassigned) [Example 182c] as the molecule, how does the pEC50 read?
Answer: Its pEC50 is 5.34.

Question: How did the pEC50 turn out when `NS(=O)(=O)N1CCC2(CCC(C3c4ccccc4-c4cncn43)C2O)CC1` (single isomer, unassigned) [Example 182d] was run?
Answer: Its pEC50 is 7.04.
